Experiment [1] addresses T1, Recombinant human c-Met protein (Homo sapiens, UniProt P08581).
T1 construct: purchased Invitrogen
Nature of the experiment: c-Met receptor tyrosine kinase activity assay (NADH read-out). Format: biochemical. As to conditions: c-Met 30 nM, ATP 30 μM, 100 min at 32° C. As to the method:
c-Met Receptor Tyrosine Kinase Activity Assay (NADH Read-Out):
Recombinant human c-Met protein (Invitrogen, Carlsbad, Calif., USA) is used. As substrate for the kinase reaction the peptide KKKSPGEYVNIEFG (JPT, Germany) is used. For the assay, 1 μL of a 51-fold concentrated solution of the test compound in DMSO is pipetted into a white 384-well microtiter plate (Greiner Bio-One, Frickenhausen, Germany). 25 μL of a solution of c-Met (final concentration 30 nM) and pyruvate kinase/lactate dehydrogenase (Roche Diagnostics, Mannheim, Germany; final concentration 8 mg/L) in assay buffer [3-(N-morpholino)propane-sulfonic acid (MOPS), 50 mM, pH 7; MgCl2, 10 mM; bovine serum albumin (BSA), 0.01%; Triton X 100, 0.01%; DTT, 2 mM] are added, and the mixture is incubated for 5 min at room temperature. Then, the kinase reaction is started by the addition of 25 μL of a solution of adenosine triphosphate (ATP, final concentration 30 μM), substrate (final concentration 100 μM), nicotinamide adenine dinucleotide (NADH, final concentration 50 μM) and dithiothreitol (DTT, final concentration 2 mM) in assay buffer, and the resulting mixture is incubated for a reaction time of 100 min at 32° C.
Subsequently, the amount of phosphorylated substrate is evaluated by measurement of the decrease of NADH fluorescence. Therefore, the fluorescence emissions at 465 nm after excitation at 340 nm is measured in a fluorescence reader, e.g. Tecan Ultra (Tecan, Männedorf, Switzerland). The data are normalised (enzyme reaction without inhibitor=0% inhibition; all other assay components but no enzyme=100% inhibition).

In experiment [2] the target is T2, N-terminally His6-tagged recombinant kinase domain of the human c-Met (amino acids 960-1390) (Homo sapiens, UniProt P08581).
T2 construct: kinase domain of the human c-Met (amino acids 960-1390); His6 (N); made in house; host or cells: insect cells (SF21)
The experiment can be described thus: c-Met receptor tyrosine kinase homogeneous time-resolved fluorescence assay (alternative format). Format: biochemical. Particulars: HTRF; ATP 10 μM, 30 min at 22° C. The text has this:
c-Met Receptor Tyrosine Kinase Homogeneous Time-Resolved Fluorescence Assay (Alternative Format):
The N-terminally His6-tagged recombinant kinase domain of the human c-Met (amino acids 960-1390), expressed in insect cells (SF21) and purified by Ni-NTA affinity chromatography and consecutive size exclusion chromatography (Superdex 200), is used. Alternatively, commercially available c-Met (Millipore) can be used. As substrate for the kinase reaction, the biotinylated poly-Glu,Tyr (4:1) copolymer (#61GT0BLC, Cis Biointernational, Marcoule, France) is used.
For the assay, 50 nL of a 100-fold concentrated solution of the test compound in DMSO is pipetted into a black low-volume 384-well microtiter plate (Greiner Bio-One, Frickenhausen, Germany). 2 μL of a solution of c-Met in assay buffer [25 mM Hepes/NaOH, pH 7.5; 5 mM MgCl2; 5 mM MnCl2; 2 mM dithiothreitol; 0.1% (v/v) Tween 20 (Sigma); 0.1% (w/v) bovine serum albumin] are added, and the mixture is incubated for 15 min at 22° C. to allow pre-binding of the test compound to the enzyme before the start of the kinase reaction. Then, the kinase reaction is started by the addition of 3 μL of a solution of adenosine triphosphate (ATP, 16.7 μM; final concentration in the 5 μL assay volume is 10 μM) and substrate (2.27 μg/mL, final concentration in the 5 μL assay volume is 1.36 μg/mL˜30 nM) in assay buffer, and the resulting mixture is incubated for a reaction time of 30 min at 22° C. […]
The resulting mixture is incubated for 1 h at 22° C. to allow the binding of the biotinylated phosphorylated peptide to the streptavidine-XLent and the PT66-Eu-chelate. Subsequently, the amount of phosphorylated substrate is evaluated by measurement of the resonance energy transfer from the PT66-Eu-chelate to the streptavidine-XLent. Therefore, the fluorescence emissions at 620 nm and 665 nm after excitation at 350 nm are measured in an HTRF reader, e.g. Rubystar (BMG Lab-technologies, Offenburg, Germany) or Viewlux (Perkin-Elmer). […]

Structures are written as SMILES.

T2 sequence (P08581 960-1390): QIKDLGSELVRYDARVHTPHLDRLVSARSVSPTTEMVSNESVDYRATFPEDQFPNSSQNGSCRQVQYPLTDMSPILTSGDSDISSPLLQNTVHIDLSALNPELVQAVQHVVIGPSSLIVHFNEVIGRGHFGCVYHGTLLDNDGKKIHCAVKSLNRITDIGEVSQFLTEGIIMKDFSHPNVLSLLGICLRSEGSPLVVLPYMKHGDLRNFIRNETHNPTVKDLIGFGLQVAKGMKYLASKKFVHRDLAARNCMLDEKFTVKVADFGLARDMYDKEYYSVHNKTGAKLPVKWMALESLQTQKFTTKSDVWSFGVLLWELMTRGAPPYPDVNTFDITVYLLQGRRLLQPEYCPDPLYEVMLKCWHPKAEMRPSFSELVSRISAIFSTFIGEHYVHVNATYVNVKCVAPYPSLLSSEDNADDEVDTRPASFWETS
T1 sequence (P08581 25-1390): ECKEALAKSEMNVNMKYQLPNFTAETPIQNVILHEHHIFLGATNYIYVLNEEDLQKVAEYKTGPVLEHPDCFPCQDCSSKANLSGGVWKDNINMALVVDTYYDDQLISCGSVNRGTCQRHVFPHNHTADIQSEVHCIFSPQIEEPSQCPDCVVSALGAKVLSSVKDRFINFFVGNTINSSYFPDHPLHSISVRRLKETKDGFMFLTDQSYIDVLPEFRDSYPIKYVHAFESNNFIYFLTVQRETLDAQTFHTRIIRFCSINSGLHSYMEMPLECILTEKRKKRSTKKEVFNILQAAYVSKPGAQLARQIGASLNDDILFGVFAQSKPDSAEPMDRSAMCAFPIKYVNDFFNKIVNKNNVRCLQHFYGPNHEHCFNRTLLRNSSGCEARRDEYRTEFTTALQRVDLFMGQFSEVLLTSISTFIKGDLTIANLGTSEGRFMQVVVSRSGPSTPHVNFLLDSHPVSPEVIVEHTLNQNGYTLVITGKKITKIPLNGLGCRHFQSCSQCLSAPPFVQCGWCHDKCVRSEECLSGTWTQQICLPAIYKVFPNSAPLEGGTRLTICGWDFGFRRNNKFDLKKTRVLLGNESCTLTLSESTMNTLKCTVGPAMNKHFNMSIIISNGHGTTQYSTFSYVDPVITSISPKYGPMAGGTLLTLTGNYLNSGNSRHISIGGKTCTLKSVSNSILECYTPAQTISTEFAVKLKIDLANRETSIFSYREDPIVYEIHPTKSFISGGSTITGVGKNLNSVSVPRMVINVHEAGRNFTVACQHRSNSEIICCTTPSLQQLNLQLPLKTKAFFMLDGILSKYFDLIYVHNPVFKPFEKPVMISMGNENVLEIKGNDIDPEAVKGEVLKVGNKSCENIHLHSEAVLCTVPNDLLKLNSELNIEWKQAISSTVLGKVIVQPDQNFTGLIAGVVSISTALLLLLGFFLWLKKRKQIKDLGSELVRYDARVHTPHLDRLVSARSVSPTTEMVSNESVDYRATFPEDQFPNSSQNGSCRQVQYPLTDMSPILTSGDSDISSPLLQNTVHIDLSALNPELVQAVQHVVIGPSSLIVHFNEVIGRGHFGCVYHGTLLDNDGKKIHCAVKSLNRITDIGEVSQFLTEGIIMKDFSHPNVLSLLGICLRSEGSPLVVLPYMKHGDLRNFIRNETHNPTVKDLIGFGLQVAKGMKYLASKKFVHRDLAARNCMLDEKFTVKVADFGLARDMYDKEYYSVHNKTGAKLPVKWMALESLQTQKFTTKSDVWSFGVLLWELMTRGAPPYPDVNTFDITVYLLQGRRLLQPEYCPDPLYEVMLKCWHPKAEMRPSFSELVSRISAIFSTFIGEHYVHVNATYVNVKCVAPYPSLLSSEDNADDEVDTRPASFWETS

For the compound `CCc1n[nH]c2ccc(C3C(C#N)=C(C)N4CCOCC4=C3C#N)cc12` (single isomer, unassigned) [Example 6, 8-(3-Ethyl-1H-indazol-5-yl)-6-methyl-1,3,4,8-tetrahydropyrido[2,1-c][1,4]oxazine-7,9-dicarbonitrile], the IC50 in experiment [1] came out at 88 nM. On to `CC1=C(C#N)C(c2ccc3[nH]nc(-c4ccc(F)nc4)c3c2)C(C#N)=C2COCCN12` (stereo not shown) [Example 7, 8-[3-(6-Fluoropyridin-3-yl)-1H-indazol-5-yl]-6-methyl-1,3,4,8-tetrahydropyrido[2,1-c][1,4]-oxazine-7,9-dicarbonitrile], for which the IC50 in experiment [1] stood at 23 nM; in experiment [2], 2 nM. As to `CCc1n[nH]c2ccc(C3C(C#N)=C(C)N4CCOCC4=C3C#N)cc12` (racemic) [Example 4, 8-(3-Ethyl-1H-indazol-5-yl)-6-methyl-1,3,4,8-tetrahydropyrido[2,1-c][1,4]oxazine-7,9-dicarbonitrile], the IC50 in experiment [2] was determined as 23 nM.

Take `CCc1n[nH]c2ccc(C3C(C#N)=C(C)N4CCOCC4=C3C#N)cc12` (single isomer, unassigned) [Example 5, 8-(3-Ethyl-1H-indazol-5-yl)-6-methyl-1,3,4,8-tetrahydropyrido[2,1-c][1,4]oxazine-7,9-dicarbonitrile]: the IC50 in experiment [1] is 12 nM. As for `CC1=C(C#N)C(c2ccc3[nH]nc(C)c3c2)C(C#N)=C2COCCN12` (single isomer, unassigned) [Example 2, 6-Methyl-8-(3-methyl-1H-indazol-5-yl)-1,3,4,8-tetrahydropyrido[2,1-c][1,4]oxazine-7,9-dicarbonitrile], the IC50 in experiment [1] stood at 8 nM; in experiment [2], 1 nM.

The values above are taken from patent US8642595B2, “Annellated 4-(indazolyl)-1,4-dihydropyridine derivatives and methods of use thereof” (Bayer Intellectual Property GmbH, priority 2008, dated 2014).
